# Results as given in PubChem BioAssay AID1919015 (Molecular Pharmacology Branch, DTP, NCI, 2023).
# Several values for one entry are separate records, joined by “and”; a condition that tells them apart may be missing. Identical values can stand only once.
# System: OVCAR-5 complex spheroids with HUVEC/MSC, viability, % test/control
# Experiment: Anticancer human tumor OVCAR-5 cell line growth inhibition [AhR];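 note: spheroids exposed to compounds for 7 days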;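 for viability, T/C: 100% = DMSO vehicle control wells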
# Details: for viability, T/C: stronger effect = lower value
# Text: Multicellular complex tumor spheroid response to aryl hydrocarbon receptor antagonists in combination with a variety of drugs and investigational agents in selected tumor cell lines
# The current study was undertaken to assess response to aryl hydrocarbon receptor antagonists in combination with standard-of-care drugs and investigational agents in solid tumor complex spheroid models. Complex spheroids include a stromal component modeled by human endothelial cells (HUVEC) and fibroblasts modeled by human mesenchymal stem cells (MSCs). The concentration ranges selected for each drug and investigational agent were based upon clinically achievable concentrations if the clinical Cmax of the agent was known.
# Compounds. The drugs and investigational agents: BAY 2416964 (NSC825713), GNF351 (NSC835774), CH-223191 (NSC835775), CPI-455 (NSC825282), aza-TdCyd (NSC777586), decitabine (NSC127716), belinostat (NSC758774), entinostat (NSC756642), pevonedistat (NSC761192), tazemetostat (NSC777109), talazoparib (NSC765396), olaparib (NSC753686), selinexor (NSC780203), nedisertib (M3814, NSC802822), bortezomib (NSC756655), venetoclax (NSC766270), doxorubicin (NSC123127), elimusertib (BAY189344, NSC800525), ceralasertib (AZD6738, NSC777638), TAK-243 (NSC785004), alisertib (NSC759677), etoposide (NSC141540), topotecan (NSC609699), eribulin (NSC707389), gemcitabine (NSC613327), carboplatin (NSC241240), cisplatin (NSC119875), and SN-38 (NSC673596) were obtained from the National Cancer Institute (NCI) Developmental Therapeutics Program Chemical Repository (32). The FDA-approved anticancer drug set is available from the Developmental Therapeutics Program at https://dtp.cancer.gov/organization/dscb/obtaining/available plates.htm. […] The stock solutions were prepared in dimethyl sulfoxide (DMSO, Sigma-Aldrich, St. Louis, MO, cat. D2650), except for the platinum compounds which were prepared in saline (Quality Biological, Gaithersburg, MD, cat. 114-055-101), at 800-fold the tested concentration and stored at -70 degrees C prior to their use. All drugs and investigational agents were tested over a range starting from a high concentration at or near the clinical Cmax and decreasing in half-log increments. If the clinical Cmax for an agent had not been determined, the highest concentration tested was 10 microM (Table 1).
# Cell Culture. All cells were maintained in an incubator at 37 degrees C and 5% CO2 with 95% humidity. The PDC lines were cultured according to standard operating procedures established by the NCI PDMR (https://pdmr.cancer.gov). Briefly, all PDCs were thawed and cultured in Matrigel-coated flasks prepared with a working solution of 1X Ham's F-12 nutrient mix, without supplementation (Invitrogen, Waltham, MA, cat. 11765054), 100 U/mL penicillin-streptomycin (Invitrogen, cat. 15140122), and 2.5% Matrigel (Corning Inc., Corning, NY, cat. 354248) for the first three passages. All PDCs were cultured in complete DMEM/F-12 media containing advanced DMEM/F-12 (Invitrogen, cat. 12634028), 4.9% defined fetal bovine serum, heat inactivated (HyClone Laboratories Inc., Logan, UT, cat. SH30070.03HI), 389 ng/mL hydrocortisone (Sigma-Aldrich, cat. H4001), 9.7 ng/mL human EGF recombinant protein (Invitrogen, cat. PHG0313), 23.4 microg/mL adenine (Sigma-Aldrich, cat. A2786), 97.3 U/mL penicillin-streptomycin (Invitrogen, cat. 15140122), 1.9 mM L-glutamine (Invitrogen, cat. 25030081), and 9.7 microM Y-27632 dihydrochloride (Tocris Bioscience, Bristol, United Kingdom, cat. 1254). The PDCs were cultured in complete DMEM/F12 media without 10 microM Y-27632 dihydrochloride for at least two passages prior to the screen. The established cell lines NCI-H1341 and […] were cultured in DMEM/F-12, HEPES (Invitrogen, cat. 11330032), 5% defined fetal bovine serum (HyClone Laboratories Inc., cat. SH30070.03), ITS premix universal culture supplement [insulin (5 microg/mL), transferrin (5 microg/mL), and selenious acid (5 ng/mL)] […]
# [1] = curve of first compound, second compound 0.1 µM
# [2] = curve of first compound, second compound 0.316 µM
# [3] = curve of first compound, second compound 1 µM
# [4] = curve of first compound, second compound 3.16 µM
# [5] = curve of first compound, second compound 10 µM
# [6] = second compound 0.1 µM, first compound 0.0316 µM
# [7] = second compound 0.1 µM, first compound 0.1 µM
# [8] = second compound 0.1 µM, first compound 0.316 µM
# [9] = second compound 0.1 µM, first compound 1 µM
# [10] = second compound 0.316 µM, first compound 0.0316 µM
# [11] = second compound 0.316 µM, first compound 0.1 µM
# [12] = second compound 0.316 µM, first compound 0.316 µM
# [13] = second compound 0.316 µM, first compound 1 µM
# [14] = second compound 1 µM, first compound 0.0316 µM
# [15] = second compound 1 µM, first compound 0.1 µM
# [16] = second compound 1 µM, first compound 0.316 µM
# [17] = second compound 1 µM, first compound 1 µM
# [18] = second compound 3.16 µM, first compound 0.0316 µM
# [19] = second compound 3.16 µM, first compound 0.1 µM
# [20] = second compound 3.16 µM, first compound 0.316 µM
# [21] = second compound 3.16 µM, first compound 1 µM
# [22] = second compound 10 µM, first compound 0.0316 µM
# [23] = second compound 10 µM, first compound 0.1 µM
# [24] = second compound 10 µM, first compound 0.316 µM
# [25] = second compound 10 µM, first compound 1 µM
# [26] = second compound 0.1 µM, first compound 3.16 µM
# [27] = second compound 0.1 µM, first compound 10 µM
# [28] = second compound 0.316 µM, first compound 3.16 µM
# [29] = second compound 0.316 µM, first compound 10 µM
# [30] = second compound 1 µM, first compound 3.16 µM
# [31] = second compound 1 µM, first compound 10 µM
# [32] = second compound 3.16 µM, first compound 3.16 µM
# [33] = second compound 3.16 µM, first compound 10 µM
# [34] = second compound 10 µM, first compound 3.16 µM
# [35] = second compound 10 µM, first compound 10 µM
Structure (SMILES),IC50 [1] [nM],IC50 [2] [nM],IC50 [3] [nM],IC50 [4] [nM],IC50 [5] [nM],"viability, T/C [6] [%]","viability, T/C [7] [%]","viability, T/C [8] [%]","viability, T/C [9] [%]","viability, T/C [10] [%]","viability, T/C [11] [%]","viability, T/C [12] [%]","viability, T/C [13] [%]","viability, T/C [14] [%]","viability, T/C [15] [%]","viability, T/C [16] [%]","viability, T/C [17] [%]","viability, T/C [18] [%]","viability, T/C [19] [%]","viability, T/C [20] [%]",further results
CC1COCCN1c1cc(-c2ccnn2C)c2ccnc(-c3ccn[nH]3)c2n1 (configuration not stated) + Cc1cncc(-c2nc(NCCc3c[nH]c4ccccc34)c3ncn(C(C)C)c3n2)c1,273,282,265,183,< 3.16,103,83,45.2,32.9,105,85,46.3,32.9,100,78.2,45.6,33.9,84.2,65.2,36.5,"viability, T/C (second compound 0.1 µM, first compound 0.00316 µM): 107%; viability, T/C (second compound 0.1 µM, first compound 0.01 µM): 103%; viability, T/C (second compound 0.316 µM, first compound 0.00316 µM): 106%; viability, T/C (second compound 0.316 µM, first compound 0.01 µM): 104%; viability, T/C (second compound 1 µM, first compound 0.00316 µM): 97.3%; viability, T/C (second compound 1 µM, first compound 0.01 µM): 99.2%; viability, T/C (second compound 3.16 µM, first compound 0.00316 µM): 80.8%; viability, T/C (second compound 3.16 µM, first compound 0.01 µM): 87.4%; viability, T/C [21]: 30.1%; viability, T/C (second compound 10 µM, first compound 0.00316 µM): 12.8%; viability, T/C (second compound 10 µM, first compound 0.01 µM): 12.8%; viability, T/C [22]: 13.7%; viability, T/C [23]: 10.6%; viability, T/C [24]: 6.62%; viability, T/C [25]: 7.97%"
Nc1ccn(C2OC(CO)C(O)C2(F)F)c(=O)n1 (configuration not stated) + Cc1cncc(-c2nc(NCCc3c[nH]c4ccccc34)c3ncn(C(C)C)c3n2)c1,< 31.6,< 31.6,< 31.6,< 31.6,< 31.6,33.2,30.1,31.2,33,33.6,30.9,32,32,33.6,31.5,34.1,33,33.6,33.4,32,"viability, T/C [26]: 33%; viability, T/C [27]: 31.6%; viability, T/C [28]: 32.2%; viability, T/C [29]: 31.6%; viability, T/C [30]: 34.9%; viability, T/C [31]: 32%; viability, T/C [21]: 32.5%; viability, T/C [32]: 35%; viability, T/C [33]: 34.4%; viability, T/C [22]: 3.2%; viability, T/C [23]: 3.6%; viability, T/C [24]: 4.58%; viability, T/C [25]: 4.3%; viability, T/C [34]: 6.36%; viability, T/C [35]: 9.03%"
O=C(C=Cc1cccc(S(=O)(=O)Nc2ccccc2)c1)NO + Cc1cncc(-c2nc(NCCc3c[nH]c4ccccc34)c3ncn(C(C)C)c3n2)c1,1130,1010,1130,891,< 31.6,95.8,87.4,70.6,52.4,95.1,88.1,70.2,52.1,87.9,88.3,70,55.3,79.4,75.8,66,"viability, T/C [26]: 30.4%; viability, T/C [27]: 7.81%; viability, T/C [28]: 24.9%; viability, T/C [29]: 6.95%; viability, T/C [30]: 25.1%; viability, T/C [31]: 6.35%; viability, T/C [21]: 49%; viability, T/C [32]: 23.1%; viability, T/C [33]: 5.52%; viability, T/C [22]: 23.3%; viability, T/C [23]: 26.7%; viability, T/C [24]: 23.4%; viability, T/C [25]: 24.9%; viability, T/C [34]: 16.4%; viability, T/C [35]: 2.82%"
Cn1ncnc1C1c2n[nH]c(=O)c3cc(F)cc(c23)NC1c1ccc(F)cc1 (configuration not stated),–,–,–,–,–,–,–,–,–,–,–,–,–,–,–,–,–,–,–,–,"viability, T/C (compound 0.000316 µM): 104% and 100% and 102%; viability, T/C (compound 0.001 µM): 101% and 99% and 103%; viability, T/C (compound 0.00316 µM): 105% and 94.4% and 102%; viability, T/C (compound 0.01 µM): 98.9% and 92.5% and 97.6%; viability, T/C (compound 0.0316 µM): 101% and 92.3% and 97.3%; viability, T/C (compound 0.1 µM): 95.8% and 88% and 91.3%; IC50 (curve of compound): > 100 nM"
